System: old Labrador Retriever dog that had difficulty in standing and walking
Test: Exercise ability (walking distance) of a dog under cofactor supplementation
Type: in vivo
Experimental: When L-carnitine, acetyl-L-carnitine, with added pantothenate at 0.4 mg/kg body weight were supplemented for one week, exercise ability increased to 2740 yards and, by three weeks, ability was 3807 yards. However, when pantothenate was eliminated for two weeks, exercise ability declined to 350 yards. Then when pantothenate was returned to the L-carnitine and acetyl-L-carnitine combination, his exercise capability returned to more than 3800 yards. This case illustrates the contribution of the various cofactors to physical activity.

Row | SMILES | exercise ability (distance walked) (after two weeks of acetyl-L-carnitine at 4 mg/kg body weight and no L-carnitine) | distance it could walk (after one week of L-carnitine at 5 mg/kg body weight, 340 yards before)
1 | CC(=O)O[C@H](CC(=O)[O-])C[N+](C)(C)C [acetyl-L-carnitine] | 648 yards | –
2 | C[N+](C)(C)C[C@H](O)CC(=O)[O-] [L-carnitine] | – | 1240 yards

— patent US20070042020A1, “Composition for the treatment of dysfunctional energy metabolism syndrome” (priority 2003, published 2007)
